The test system of data set [1] is NCI-H157. Description: Induction of apoptosis in human NCI-H157 cells assessed as apoptotic cell level at 10 uM incubated for 5 hrs in serum-free medium by annexin V/propidium iodide staining by flow cytometry. The format is functional. (Flow cytometry measures light scatter and fluorescence of single cells or particles in a stream.)
In data set [2] the test system is NCI-H157. The experiment in a line: Induction of apoptosis in human NCI-H157 cells assessed as damaged cell level at 10 uM incubated for 5 hrs in serum-free medium by annexin V/propidium iodide staining by flow cytometry. In kind it is functional.
Data set [3] relates to NCI-H157. Description: Induction of apoptosis in human NCI-H157 cells assessed as necrotic cell level at 10 uM incubated for 5 hrs in serum-free medium by annexin V/propidium iodide staining by flow cytometry. The format is functional.
Data set [4] relates to NCI-H157. The experiment in a line: Induction of apoptosis in human NCI-H157 cells assessed as live cell level at 10 uM incubated for 5 hrs in serum-free medium by annexin V/propidium iodide staining by flow cytometry. In kind it is functional, cell-based.
Data set [5] in a line: Induction of methylselenol release in pH 8.0 phosphate buffer containing 100 mM Na2PO4, 1 mM EDTA and 100 uM DTNB. The format is physicochemical.
The nature of data set [6]: Induction of methylselenol release in phenol-red free RPMI 1640 medium containing 100 uM DTNB. In kind it is physicochemical.
For data set [7], the system named is NCI-H157. The experiment in a line: Induction of apoptosis in human NCI-H157 cells at 10 uM incubated for 5 hrs in serum-free medium by annexin V/propidium iodide staining by flow cytometry. In kind it is functional, cell-based.

Activity calls are given as the source filed them. The calls are words filed in the database; no cut-off is given here. Numbered stars: 1 amine (or outer) side, 2 acyl side, 3 side chain; on linkers, the order of the positions; unused ones are H or OH. Bridge positions count the residues as written; N and C are the ends. Square brackets hold non-standard residues; d marks the D form. Peptide text beside a SMILES is read from it. I, II: the chains in the order shown. Actinocin(1to9) = Cc1c2oc3c(C)ccc(C(=O)[*:2])c3nc-2c(C(=O)[*:1])c(N)c1=O; NMeV = CN[C@H](C(=O)O)C(C)C; Sar = CNCC(=O)O

With `Cc1c2oc3c(C)ccc(C(=O)N[C@@H]4C(=O)N[C@H](C(C)C)C(=O)N5CCC[C@H]5C(=O)N(C)CC(=O)N(C)[C@@H](C(C)C)C(=O)O[C@@H]4C)c3nc-2c(C(=O)N[C@@H]2C(=O)N[C@H](C(C)C)C(=O)N3CCC[C@H]3C(=O)N(C)CC(=O)N(C)[C@@H](C(C)C)C(=O)O[C@@H]2C)c(N)c1=O` [DACTINOMYCIN] (I: T[dV]P[Sar][NMeV] / II: T[dV]P[Sar][NMeV]; ester I:1-I:C, II:1-II:C; linker I:N-II:N via Actinocin(1to9)), the Activity stood at 9% in data set [1], 23% in data set [2] and 3% in data set [3]. Also, the result in data set [4] was Active.

On to `CS/C(=N/C(=O)c1cccnc1)NC(=O)c1cccnc1`, for which the t1/2 in data set [5] was determined as 1333 h; in data set [6] it was 24 h.

Regarding `C[Se]/C(=N\C(=O)c1ccc(C(F)(F)F)cc1)NC(=O)c1ccc(C(F)(F)F)cc1`, the outcome in data set [7] was inactive.

On to `C[Se]/C(=N/C(=O)c1cccnc1)NC(=O)c1cccnc1`, for which the results for the Activity in data set [1], in data set [2] and in data set [3] were 11%, 28% and 5%, respectively. For the same molecule, the t1/2 in data set [5] was determined as 26 h; in data set [6], 2.9 h. Besides, the outcome in data set [7] and in data set [4] was Active.

With `C[Se]/C(=N\C(=O)c1ccc(C)cc1)NC(=O)c1ccc(C)cc1`, the outcome in data set [7] was inactive.

Regarding `C[Se]/C(=N/C(C)=O)NC(C)=O`, the results for the t1/2 in data set [5] and in data set [6] were 9.2 h and 0.82 h, respectively. The result in data set [7] was Active.

Regarding `COc1ccc(C(=O)/N=C(\NC(=O)c2ccc(OC)cc2OC)[Se]C)c(OC)c1`, in data set [7], the outcome was inactive.

`C[Se]/C(=N\C(=O)c1ccccc1)NC(=O)c1ccccc1`: the result in data set [7] was inactive.

`C[Se]/C(=N/C(=O)c1cccnc1Cl)NC(=O)c1cccnc1Cl`: the t1/2 in data set [5] came out at 40 h; in data set [6], 4.7 h. For the same molecule, in data set [7], the outcome was Active.

With `CS/C(=N/C(=O)c1cccnc1Cl)NC(=O)c1cccnc1Cl`, the t1/2 in data set [5] was 917 h; in data set [6], 31 h.
